This is an account of results in patent US10065970B2 (Genentech, Inc., priority 2015, dated 2018).

Structures are written as SMILES.

Chain of PI3Kα (alpha) (P42336 whole entry): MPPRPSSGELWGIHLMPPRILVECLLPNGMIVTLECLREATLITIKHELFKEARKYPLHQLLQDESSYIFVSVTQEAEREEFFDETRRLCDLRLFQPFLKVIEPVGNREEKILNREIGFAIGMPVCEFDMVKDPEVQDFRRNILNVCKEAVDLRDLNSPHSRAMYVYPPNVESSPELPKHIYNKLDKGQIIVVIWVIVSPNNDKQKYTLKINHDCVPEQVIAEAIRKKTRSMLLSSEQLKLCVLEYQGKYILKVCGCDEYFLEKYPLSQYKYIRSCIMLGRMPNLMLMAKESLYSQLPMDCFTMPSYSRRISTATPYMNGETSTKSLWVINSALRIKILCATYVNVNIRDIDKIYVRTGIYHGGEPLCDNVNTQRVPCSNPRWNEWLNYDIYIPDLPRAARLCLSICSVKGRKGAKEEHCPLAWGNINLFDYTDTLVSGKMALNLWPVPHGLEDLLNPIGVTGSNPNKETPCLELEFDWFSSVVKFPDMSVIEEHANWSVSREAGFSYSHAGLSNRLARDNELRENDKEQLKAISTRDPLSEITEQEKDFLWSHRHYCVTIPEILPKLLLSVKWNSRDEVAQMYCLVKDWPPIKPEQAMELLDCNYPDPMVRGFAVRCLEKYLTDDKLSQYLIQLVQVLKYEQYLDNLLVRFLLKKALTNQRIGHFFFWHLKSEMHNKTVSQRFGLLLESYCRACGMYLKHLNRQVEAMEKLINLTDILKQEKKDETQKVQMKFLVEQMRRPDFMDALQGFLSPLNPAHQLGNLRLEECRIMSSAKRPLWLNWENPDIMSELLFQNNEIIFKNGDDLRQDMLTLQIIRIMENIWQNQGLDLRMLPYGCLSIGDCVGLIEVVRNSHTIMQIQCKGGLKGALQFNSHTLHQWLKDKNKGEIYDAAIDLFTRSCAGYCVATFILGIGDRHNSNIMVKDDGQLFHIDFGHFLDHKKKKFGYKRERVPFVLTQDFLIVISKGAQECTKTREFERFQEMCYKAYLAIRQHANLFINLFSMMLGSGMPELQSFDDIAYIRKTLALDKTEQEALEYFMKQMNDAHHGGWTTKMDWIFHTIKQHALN
Chain of PI3Kα (alpha) (P27986 whole entry partner): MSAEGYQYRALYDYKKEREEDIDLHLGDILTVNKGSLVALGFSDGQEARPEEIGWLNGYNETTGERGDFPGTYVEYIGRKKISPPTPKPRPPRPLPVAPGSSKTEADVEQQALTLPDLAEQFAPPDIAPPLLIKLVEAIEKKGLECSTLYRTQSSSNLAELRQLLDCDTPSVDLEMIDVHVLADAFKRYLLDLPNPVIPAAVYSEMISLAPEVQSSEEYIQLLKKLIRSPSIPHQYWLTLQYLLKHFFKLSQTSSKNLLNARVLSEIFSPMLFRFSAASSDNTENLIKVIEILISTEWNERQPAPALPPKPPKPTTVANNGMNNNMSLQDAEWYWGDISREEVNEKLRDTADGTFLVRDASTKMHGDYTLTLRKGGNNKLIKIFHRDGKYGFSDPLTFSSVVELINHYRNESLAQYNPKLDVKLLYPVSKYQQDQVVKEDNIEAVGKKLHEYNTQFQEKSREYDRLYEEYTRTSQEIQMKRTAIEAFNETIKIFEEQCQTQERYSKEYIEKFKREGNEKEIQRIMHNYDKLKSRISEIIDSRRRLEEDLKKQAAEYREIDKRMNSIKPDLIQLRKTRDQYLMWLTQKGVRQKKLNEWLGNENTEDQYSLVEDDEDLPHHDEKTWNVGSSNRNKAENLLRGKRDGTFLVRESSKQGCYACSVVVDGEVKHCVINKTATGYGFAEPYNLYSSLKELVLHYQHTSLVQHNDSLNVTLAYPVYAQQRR

The experiment addresses PI3Kα (alpha) (Homo sapiens (Human), UniProt P42336). The experiment in a line: p110α (alpha) PI3K Binding Assay (ADP-Glo lipid kinase reaction). Format: biochemical. The following applies: PI3K alpha 0.2 nM, ATP 40 μM, PIP2:3PS 50 μM, 120 min, room temperature; Ki by Morrison Equation; read-out: PI3Kα-(alpha) ATP (Ki) micromolar. An outline of the steps:
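Enzyme with PIP2:3PS lipid substrate and ATP/MgCl2 in 50 mM HEPES, 50 mM NaCl, 3 mM MgCl2, 0.01% BSA, 1% DMSO, 120 min at room temperature. ADP formed detected by ADP-Glo luminescence. Ki from 10-point dose-response curves via the Morrison equation.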
One may read the Ki as the dissociation constant of the complex between target and ligand, obtained from inhibition or displacement. Take `NC(=O)[C@@H](Nc1cc2c3c(c1)nc(-c1ccc4ncncc4c1)n3CCCO2)C1CC1` [Example 119, (S)-2-Cyclopropyl-2-((1-(quinazolin-6-yl)-8,9-dihydro-7H-6-oxa-2,9a-diazabenzo[cd]azulen-4-yl)amino)acetamide]: the Ki turned out to be 215 nM.
As for `C[C@@H](C(N)=O)n1cc(-c2cc3c4c(c2)nc(-c2ccc5oc(N)nc5c2)n4CCCO3)cn1` [Example 219, (S)-2-(4-(1-(2-Aminobenzo[d]oxazol-5-yl)-8,9-dihydro-7H-6-oxa-2,9a-diazabenzo[cd]azulen-4-yl)-1H-pyrazol-1-yl)propanamide], the Ki was 0.242 nM.
As for `CC[C@H](Oc1cc2c3c(c1)nc(-c1cc(F)c4oc(N)nc4c1)n3CCCCO2)C(N)=O` [Example 272, (S)-2-((1-(2-Amino-7-fluorobenzo[d]oxazol-5-yl)-7,8,9,10-tetrahydro-6-oxa-2,10a-diazacycloocta[cd]inden-4-yl)oxy)butanamide], the figure is less than 0.02 nM; as for `CS(=O)(=O)c1ccc(-c2nc3cc(N[C@H](C(N)=O)C4CC4)cc4c3n2CCCO4)cc1` [Example 137, (S)-2-Cyclopropyl-2-((1-(4-(methylsulfonyl)phenyl)-8,9-dihydro-7H-6-oxa-2,9a-diazabenzo[cd]azulen-4-yl)amino)acetamide], 916 nM; as for `COc1ncc(-c2nc3cc(N[C@H](C(N)=O)C4CC4)cc4c3n2CCCO4)cc1Cl` [Example 130, (S)-2-((1-(5-Chloro-6-methoxypyridin-3-yl)-8,9-dihydro-7H-6-oxa-2,9a-diazabenzo[cd]azulen-4-yl)amino)-2-cyclopropylacetamide], 7.67 nM.
As to `C[C@H](Nc1cc2c3c(c1)nc(-c1cccnc1)n3CCCO2)C(N)=O` [Example 108, (S)-2-((1-(Pyridin-3-yl)-8,9-dihydro-7H-6-oxa-2,9a-diazabenzo[cd]azulen-4-yl)amino)propanamide], the Ki was determined as 22.1 nM.
Under `NC(=O)[C@@H](Nc1cc2c3c(c1)nc(-c1ccc4c(c1)OCCO4)n3CCCO2)C1CC1` [Example 138, (S)-2-Cyclopropyl-2-((1-(2,3-dihydrobenzo[b][1,4]dioxin-6-yl)-8,9-dihydro-7H-6-oxa-2,9a-diazabenzo[cd]azulen-4-yl)amino)acetamide] stands 22.9 nM; under `CNC(=O)C(C)(C)n1cc(-c2cc3c4c(c2)nc(-c2ccc5oc(N)nc5c2)n4CCCO3)cn1` [Example 154, 2-(4-(1-(2-Aminobenzo[d]oxazol-5-yl)-8,9-dihydro-7H-6-oxa-2,9a-diazabenzo[cd]azulen-4-yl)-1H-pyrazol-1-yl)-N,2-dimethylpropanamide], 0.317 nM.
Under `CC[C@H](C(N)=O)n1cc(-c2cc3c4c(c2)nc(-c2ccc5oc(N)nc5n2)n4CCCCO3)cn1` (single isomer, unassigned) [Example 302] stands 0.102 nM; under `C[C@H](Oc1cc2c3c(c1)nc(-c1ccc4oc(N)nc4c1)n3CCCCO2)C(=O)O` [Example 297, (S)-2-((1-(2-Aminobenzo[d]oxazol-5-yl)-7,8,9,10-tetrahydro-6-oxa-2,10a-diazacycloocta[cd]inden-4-yl)oxy)propanoic acid], 2.23 nM; under `C[C@H](Oc1cc2c3c(c1)nc(-c1ccc(-c4ncn[nH]4)cc1F)n3CCCCO2)C(N)=O` [Example 293, (S)-2-((1-(2-Fluoro-4-(1H-1,2,4-triazol-3-yl)phenyl)-7,8,9,10-tetrahydro-6-oxa-2,10a-diazacycloocta[cd]inden-4-yl)oxy)propanamide], 0.0222 nM.
As for `NC(=O)[C@@H]1CCCN1c1cc2c3c(c1)nc(-c1ccc4oc(N)nc4c1)n3CCCCO2` [Example 250, (S)-1-(1-(2-Aminobenzo[d]oxazol-5-yl)-7,8,9,10-tetrahydro-6-oxa-2,10a-diazacycloocta[cd]inden-4-yl)pyrrolidine-2-carboxamide], the figure is less than 0.02 nM; as for `C[C@@H](C(N)=O)N(C)c1cc2c3c(c1)nc(-c1ccc4nc(N)sc4c1)n3CCCCO2` [Example 255, (S)-2-((1-(2-Aminobenzo[d]thiazol-6-yl)-7,8,9,10-tetrahydro-6-oxa-2,10a-diazacycloocta[cd]inden-4-yl)(methyl)amino)propanamide], 0.149 nM.
`NC(=O)[C@@H](Nc1cc2c3c(c1)nc(-c1cnn(C4COC4)c1)n3CCCO2)C1CC1` [Example 210, (S)-2-Cyclopropyl-2-((1-(1-(oxetan-3-yl)-1H-pyrazol-4-yl)-8,9-dihydro-7H-6-oxa-2,9a-diazabenzo[cd]azulen-4-yl)amino)acetamide]: the Ki came to 285 nM.
Turning to `NC(=O)c1ccc(-c2nc3cc(N[C@H](C(N)=O)C4CC4)cc4c3n2CCCO4)cn1` [Example 191, (S)-5-(4-((2-Amino-1-cyclopropyl-2-oxoethyl)amino)-8,9-dihydro-7H-6-oxa-2,9a-diazabenzo[cd]azulen-1-yl)picolinamide], the Ki is 105 nM.
Under `Cn1nc(-c2nc3cc(N[C@H](C(N)=O)C4CC4)cc4c3n2CCCO4)ccc1=O` [Example 129, (S)-2-Cyclopropyl-2-((1-(1-methyl-6-oxo-1,6-dihydropyridazin-3-yl)-8,9-dihydro-7H-6-oxa-2,9a-diazabenzo[cd]azulen-4-yl)amino)acetamide] stands 257 nM; under `NC(=O)[C@@H]1CCCN1c1cc2c3c(c1)nc(-c1ccc(-c4cn[nH]c4)nc1)n3CCCO2` [Example 223, (S)-1-(1-(6-(1H-Pyrazol-4-yl)pyridin-3-yl)-8,9-dihydro-7H-6-oxa-2,9a-diazabenzo[cd]azulen-4-yl)pyrrolidine-2-carboxamide], 74.6 nM.
As for `C[C@H](Oc1cc2c3c(c1)nc(-c1ccc4oc(N)nc4c1)n3CCCCO2)C(N)=O` [Example 204, (S)-2-((1-(2-Aminobenzo[d]oxazol-5-yl)-7,8,9,10-tetrahydro-6-oxa-2,10a-diazacycloocta[cd]inden-4-yl)oxy)propanamide], the figure is less than 0.02 nM.
As for `Cc1nn(C)cc1-c1nc2cc(N[C@H](C(N)=O)C3CC3)cc3c2n1CCCO3` [Example 160, (S)-2-Cyclopropyl-2-[1-(1,3-dimethyl-1H-pyrazol-4-yl)-8,9-dihydro-7H-6-oxa-2,9a-diazabenzo[cd]azulen-4-ylamino]acetamide], the figure is 914 nM.
Regarding `Nc1nc2cc(-c3nc4c(F)c(Br)cc5c4n3CCCO5)ccc2o1` [Example 193, 5-(4-Bromo-3-fluoro-8,9-dihydro-7H-6-oxa-2,9a-diazabenzo[cd]azulen-1-yl)benzo[d]oxazol-2-amine], the Ki turned out to be 5.17 nM.
On to `CC[C@H](Oc1cc2c3c(c1)nc(-c1ccc4oc(N)nc4c1)n3CCCCO2)C(=O)O` [Example 313, (S)-2-((1-(2-Aminobenzo[d]oxazol-5-yl)-7,8,9,10-tetrahydro-6-oxa-2,10a-diazacycloocta[cd]inden-4-yl)oxy)butanoic acid], for which the Ki worked out at 2.09 nM.
Under `NC(=O)c1ccc(-c2nc3cc(N[C@H](C(N)=O)C4CC4)cc4c3n2CCCO4)cc1F` [Example 188, (S)-4-(4-((2-Amino-1-cyclopropyl-2-oxoethyl)amino)-8,9-dihydro-7H-6-oxa-2,9a-diazabenzo[cd]azulen-1-yl)-2-fluorobenzamide] stands 81.4 nM.
As for `C[C@H](Oc1cc2c3c(c1)nc(-c1ccc4sc(N)nc4c1)n3CCCCO2)C(N)=O` (single isomer, unassigned) [Example 276], the figure is 0.113 nM.
